From patent US6787562B2, “Substituted aryl and heteroaryl compounds as E-type prostaglandin antagonists” (Zeneca Ltd., priority 1995, dated 2004)

Key:
dog fundus = conditions: cited from earlier work
guinea pig ileum = conditions: cited from earlier work

| melting point [°C] | SMILES | effect of PGE2 on tissue blocked (dog fundus) | effect of PGE2 on tissue blocked (guinea pig ileum) |
| --- | --- | --- | --- |
| 126 to 127 | O=C(O)c1ccc(NCc2cc(Br)ccc2CCc2ccccc2)cc1 [Example 4, 4-[N-(5-Bromo-2-(phenethyl)benzyl)amino]Benzoic Acid] |  |  |
| 70 to 75 | CCN(Cc1ccccc1Oc1ccccc1)c1ccc(C(=O)O)nn1 [Example 12, 6-(N-Ethyl-N-(2-phenoxybenzyl)amino)pyridazine-3-carboxylic Acid] |  |  |
| 170.5 to 172 | CCN(Cc1ccccc1Oc1ccccc1)c1ccc(C(=O)O)cn1 [Example 13, 2-(N-ethyl-N-(2-phenoxybenzyl)amino)pyridine-5-carboxylic Acid] |  |  |
| 144 | O=C(O)c1ccc(SCc2ccccc2OCc2ccccc2)cc1 [Example 18, 4-[2-Benzyloxybenzylthio]benzoic Acid] |  |  |
| 108 | O=C(Nc1cccnc1)c1ccc(SCc2ccccc2OCc2ccccc2)cc1 [Example 19, N-(3-Pyridyl)-4-[2-benzyloxybenzylthio]benzamide] |  |  |
| 176.8 to 178.8 | O=C(O)c1ccc(OCc2ccccc2OCc2ccccc2)cc1 [Example 21, 4-(2-(Benzyloxy)benzyloxy)benzoic Acid] |  |  |
| 108 | CC(Oc1ccc(C(=O)O)cc1)c1ccccc1OCc1ccccc1 (centres unmarked) [Example 22, 4-(1-(2-(Benzyloxy)phenyl)ethoxy)benzoic Acid] |  |  |
| 178 to 180 | O=C(O)c1ccc(OCc2ccccc2CCc2ccccc2)cc1 [Example 23, 4-(2-(phenethyl)benzyloxy)benzoic Acid] |  |  |
| 90 to 91 | O=C(O)c1ccc(CCCc2ccccc2Sc2ccccc2)cc1 [Example 32, 4-[3-(2-(phenylthio)phenyl)propyl]benzoic Acid] |  |  |
| 134 to 137 | O=C(O)c1ccc(CCc2ccccc2CCc2ccccc2)cc1O [Example 33, 2-Hydroxy-4-[(2-phenethyl)phenethyl]benzoic Acid] |  |  |
| 135 to 136 | O=C(O)c1ccc(CCCc2ccccc2Cc2ccccc2)cc1 [Example 34, 4-[3-(2-benzylphenyl)propyl]benzoic Acid] |  |  |
| 216 to 217 | O=C(O)c1ccc(CNc2cc(Br)ccc2OCc2ccccc2)cc1 [Example 37, 4-[N-(2-Benzyloxy-5-bromophenyl)aminomethyl]benzoic Acid] |  |  |
| 94.5 to 95 | CCN(Cc1ccc(C(=O)O)cc1)c1cc(Br)ccc1OCc1ccccc1 [Example 38, 4-[N-(2-Benzyloxy-5-bromophenyl)-N-ethylaminomethyl]benzoic Acid] |  |  |
| 186.5 to 187 | CC(Nc1cc(Br)ccc1OCc1ccccc1)c1ccc(C(=O)O)cc1 (centres unmarked) [Example 39, 4-[1-(N-(2-Benzyloxy-5-bromophenyl)-amino)ethyl]benzoic Acid] |  |  |
| 181.5 to 182 | CC(c1ccc(C(=O)O)cc1)N(C)c1ccc(Br)cc1OCc1ccccc1 (centres unmarked) [Example 40, 4-[1-(N-(2-Benzyloxy-4-bromophenyl)-N-methylamino)ethyl]benzoic Acid] |  |  |
|  | CC(=O)NNC(=O)N1Cc2ccccc2Oc2ccc(Cl)cc21 [SC-19220] | blocks the effect of PGE2 | blocks the effect of PGE2 |
